Read-outs that look alike come from different tables or passages of the source.
Tests used:
Human PTP1B = target: T1, Human PTP1B (Homo sapiens, UniProt P18031); test: In vitro phosphatase activity assay (DiFMUP assay); format: biochemical
T1 construct: His6 (N); made in house; host or cells: E. coli BL21 DE3
T1 sequence (P18031 1-435): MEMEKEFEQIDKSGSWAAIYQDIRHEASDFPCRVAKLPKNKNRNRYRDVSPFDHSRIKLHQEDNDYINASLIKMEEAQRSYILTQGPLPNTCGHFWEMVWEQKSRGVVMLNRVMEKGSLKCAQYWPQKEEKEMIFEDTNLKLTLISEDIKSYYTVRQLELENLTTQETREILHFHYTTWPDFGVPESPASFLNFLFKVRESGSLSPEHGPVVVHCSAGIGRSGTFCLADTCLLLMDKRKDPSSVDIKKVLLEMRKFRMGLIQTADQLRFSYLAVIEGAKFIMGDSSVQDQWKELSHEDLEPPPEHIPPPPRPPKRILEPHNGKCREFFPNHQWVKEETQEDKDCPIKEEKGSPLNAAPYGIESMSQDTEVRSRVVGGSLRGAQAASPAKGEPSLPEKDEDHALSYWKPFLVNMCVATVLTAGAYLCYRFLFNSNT
Description: To determine the value of CHBOs in drug discovery, we constructed a synthetically accessible library of CHBOs based on the substrate scope of the reaction we newly developed. […] To explore the relationship between inhibitor activity of 3ak against PTP1B and the stereochemistry, two enantiomers (S, S)-3ak and (R, R)-3ak were synthesized and evalutated in the DiFUMP assay (Figure a). […]
Protein expression and purification7: Human PTP1B construct was subcloned into pET28a(+) vector, which contains an N-terminal His6-tag. BL21 DE3 E. coli cells were transformed as follows: 2 µL of plasmid(100 ng/µL) and 200 µL of DE3 cells were incubated for 30 min on ice, a 45 second heat shock at […], 2 min on ice, recovery with 800 µL SOC for 1 h at 37 ℃ followed by plating on a Kanamycin agar plate (50µg/mL).One colony was picked and used to inoculate 10 mL of LB media supplemented with kanamycin (50µg/mL).When the culture reached OD600 = 0.6, 10mL were transferred to one liter of LB media supplemented with Kanamycin (50 µg/mL) and grown at 37 ℃ to an OD600 = 0.6. Media is transferred to a 16 ℃ incubator. Then, the media was supplemented with 500 µM Isopropyl β-D-1-thiogalactopyranoside (IPTG) at OD600 = 0.8 and incubated for 16 h. Cells were centrifuged (4000 rpm, 20 min) and liquid was decanted. Cells were resuspended in lysis buffer (50 mM HEPES, pH 7.4, 150 mM KCl, 5 mM MgCl2, 5% glycerol, 1 mM phenylmethane sulfonyl fluoride (PMSF), 2 mM 2-mercaptoethanol (β-met)). Cells were lysed in a cell crusher (pressure 1000 bar), the mixed products were collected, centrifuged (12000 rpm, 4°C, 20 min), and the supernatant was left to discard the precipitate. The nickel column was first equilibrated with equilibration solution, and then the protein supernatant was up-sampled twice to bind the protein. The proteins were then gradually eluted with imidazole (10, 20, 60, 200 mM imidazole).
The target protein-containing fractions confirmed by SDS PAGE were placed in […] MWCO protein ultrafiltration tubes and the imidazole were replaced with dialysis buffer (20 mM HEPES, 150 mM KCl, 1 mM MgCl2). After the imidazole was removed cleanly, an equal volume of glycerol was added as a protective solution. When concentration was determined to be greater than or equal to 1 mg /mL, protein was frozen with liquid nit rogen. Protein was then stored in a -80 ℃ freezer.
In Vitro Phosphatase Activity Assays8:Incubate 1 nM purified PTP1B protein with positive control or compound to be tested in reaction buffer (25 mM Bis-Tris propane pH 7.5, […]
50 mM NaCl, 2 mM EDTA, 2 mM DTT) for 10 min at 37°C in a total volume of 90 μL. Add 10 μL of substrate buffer containing DiFMUP (final concentration of 10 μM) to the reaction buffer […]
The fluorescence intensity at 455 nm was read using a multifunctional reader with 358 nm as the excitation light, and the measured fluorescence value was used to calculate the inhibition rate of the enzyme activity by the sample over the value of the blank wells. The IC50 values of the compounds were calculated by Graphpad Prism 7.0, using a non-linear fit of the inhibition rate to the concentration of the inhibitor. […]

MB231 cells = test: Cellular anti-cancer immunity assay (cancer cell growth inhibition with or without IFNγ, CCK8); format: cell-based; conditions: MB231 cell line; 0.5 ng/ml IFNγ or medium alone; 3 days
Description: We further evaluated (S, S)-3ak with a cellular anticancer immunity assay. The assay measures the inhibition of cancer cell growth by compounds with or without cytokine IFNγ. , The synergy of testing compounds and IFNγ in inhibiting cancer cells implicates the testing compound contributes anticancer immunity. The synergy index is defined by the formula index = (IC50 ^IFNγ– – IC50 ^IFNγ+)/IC50 ^IFNγ+. […] In other words, we identified (S, S)-3ak as a promising PTP1B inhibitor, preparing for the coming hit-lead-candidate optimization.
50 mM NaCl, 2 mM EDTA, 2 mM DTT) for 10 min at 37°C in a total volume of 90 μL. […] The fluorescence intensity at 455 nm was read using a multifunctional reader with 358 nm as the excitation light, and the measured fluorescence value was used to calculate the inhibition rate of the enzyme activity by the sample over the value of the blank wells. The IC50 values of the compounds were calculated by Graphpad Prism 7.0, using a non-linear fit of the inhibition rate to the concentration of the inhibitor. […]
Cellular anti-cancer immunity assay9: MB231 cells were seeded at a density of 5000 cells per well in a 96-well plate and incubated at 37 °C. […] PTP1B inhibitors, including Osunprotafib as the positive control, were added, and cell confluence was monitored for 3 days. […]

[1] = PTP1B lC50 (μM), DiFMUP assay at room temperature, positive control ABBV-CLS-484, negative control DMSO
[2] = DiFMUP assay at room temperature, positive control ABBV-CLS-484, negative control DMSO, read-out: PTP1B lC50
[3] = DiFMUP assay at room temperature, positive control ABBV-CLS-484, negative control DMSO

O=C1O[C@@H]([C@@]2(O)C(=O)N(Cc3ccccc3)c3ccccc32)C=C1c1ccccc1 [6a]
IC50 (Human PTP1B): 10 to 30 µM
IC50 (Human PTP1B; [1]): 29.7 ± 0.56 µM

Cc1ccc(C2=C[C@H]([C@@]3(O)C(=O)N(Cc4ccccc4)c4ccccc43)OC2=O)cc1 [6ab]
IC50 (Human PTP1B; [2]): 6.68 ± 0.88 µM

Cc1ccc(C2=C[C@H]([C@@]3(O)C(=O)N(Cc4ccccc4)c4cccc(Br)c43)OC2=O)cc1 [6ac]
PTP1B lC50 (Human PTP1B; [3]): 9.13 ± 0.62 µM

COc1ccc(C2=C[C@H]([C@@]3(O)C(=O)N(Cc4ccccc4)c4ccccc43)OC2=O)cc1 [6ad]
PTP1B lC50 (Human PTP1B; [3]): 7.82 ± 1.44 µM

COc1ccc(C2=C[C@H]([C@@]3(O)C(=O)N(Cc4ccccc4)c4cccc(Br)c43)OC2=O)cc1 [6ae]
PTP1B lC50 (Human PTP1B; [3]): 11.17 ± 2.87 µM

O=C1OC(C2(O)C(=O)N(Cc3ccccc3)c3cccc(Br)c32)C=C1c1ccc2c(c1)OCO2 (stereo not drawn) [6ah]
IC50 (Human PTP1B): 0.29 to 1.58 µM
IC50 (Human PTP1B; [1]): 0.92 ± 0.18 µM

COc1ccc(C2=C[C@H]([C@@]3(O)C(=O)N(Cc4ccccc4)c4cccc(Br)c43)OC2=O)cc1OC [6ai]
PTP1B lC50 (Human PTP1B; [3]): 22.65 ± 0.75 µM

O=C1O[C@@H]([C@@]2(O)C(=O)Nc3ccccc32)C(c2ccccc2)=C1c1ccccc1 [6am]
PTP1B lC50 (Human PTP1B; [3]): 4.03 ± 0.45 µM

CC1CCC(C(C)C)C(OC(=O)c2ccc(C3=C(c4ccccc4)C(=O)OC3C3(O)C(=O)Nc4ccccc43)cc2)C1 (stereo not drawn) [6au]
IC50 (Human PTP1B): 0.29 to 1.58 µM
IC50 (Human PTP1B; [1]): 1.56 ± 0.24 µM

O=C1O[C@@H]([C@@]2(O)C(=O)Nc3ccccc32)C=C1c1ccccc1 [6b]
PTP1B lC50 (Human PTP1B; [3]): 6.93 ± 0.77 µM

O=C1O[C@@H]([C@@]2(O)C(=O)N(Cc3ccccc3)c3cccc(Cl)c32)C=C1c1ccccc1 [6d]
IC50 (Human PTP1B): 10 to 30 µM
IC50 (Human PTP1B; [1]): 17.8 ± 1.2 µM

O=C1O[C@@H]([C@@]2(O)C(=O)N(Cc3ccccc3)c3cccc(Br)c32)C=C1c1ccccc1 [6e]
IC50 (Human PTP1B; [2]): 2.1 ± 0.31 µM

O=C1O[C@@H]([C@@]2(O)C(=O)N(Cc3ccccc3)c3cccc(I)c32)C=C1c1ccccc1 [6f]
PTP1B lC50 (Human PTP1B; [3]): 8.17 ± 1.06 µM

Cc1ccc2c(c1Br)[C@@](O)([C@H]1C=C(c3ccccc3)C(=O)O1)C(=O)N2Cc1ccccc1 [6g]
PTP1B lC50 (Human PTP1B; [3]): 8.13 ± 0.06 µM

O=C1O[C@@H]([C@@]2(O)C(=O)N(Cc3ccccc3)c3ccc(Cl)c(Cl)c32)C=C1c1ccccc1 [6i]
IC50 (Human PTP1B; [2]): 3.02 ± 0.22 µM

O=C1O[C@@H]([C@@]2(O)C(=O)N(Cc3ccccc3)c3ccc(Cl)cc32)C=C1c1ccccc1 [6j]
PTP1B lC50 (Human PTP1B; [3]): 15.17 ± 1.02 µM

Cc1ccc2c(c1)C(O)(C1C=C(c3ccccc3)C(=O)O1)C(=O)N2Cc1ccccc1 (stereo not drawn) [6k]
IC50 (Human PTP1B; read-out: PTP1B lC50, DiFMUP assay at room temperature, positive control ABBV-CLS-484, negative control DMSO): 9.08 ± 0.12 µM

COc1ccc2c(c1)[C@@](O)([C@H]1C=C(c3ccccc3)C(=O)O1)C(=O)N2Cc1ccccc1 [6l]
PTP1B lC50 (Human PTP1B; [3]): 21.65 ± 1.48 µM

COc1ccc2c(c1)N(Cc1ccccc1)C(=O)[C@]2(O)[C@H]1C=C(c2ccccc2)C(=O)O1 [6p]
PTP1B lC50 (Human PTP1B; [3]): 8.23 ± 0.91 µM

O=C1O[C@@H]([C@@]2(O)C(=O)N(Cc3ccc(C(=O)NC45CC6CC(CC(C6)C4)C5)cc3)c3cccc(Br)c32)C=C1c1ccccc1 [6s]
PTP1B lC50 (Human PTP1B; [3]): 2.11 ± 0.22 µM

CC1(C)[C@H]2CC=C(CCOC(=O)c3ccc(CN4C(=O)[C@](O)([C@H]5C=C(c6ccccc6)C(=O)O5)c5c(Br)cccc54)cc3)[C@@H]1C2 [6u]
PTP1B lC50 (Human PTP1B; [3]): 0.29 ± 0.02 µM

O=C1O[C@@H]([C@@]2(O)C(=O)N(Cc3ccccc3)c3cccc(Br)c32)C=C1c1ccc2ccccc2c1 [(R, R)-3ak]
IC50 (Human PTP1B): 3.31 ± 0.2 µM

O=C1O[C@H]([C@]2(O)C(=O)N(Cc3ccccc3)c3cccc(Br)c32)C=C1c1ccc2ccccc2c1 [(S, S)-3ak]
IC50 (Human PTP1B): 0.81 ± 0.1 µM
potency relative to the enantiomer (R, R)-3ak (Human PTP1B; DiFMUP assay): 3 fold
IC50 against PTP1B (Human PTP1B; DiFMUP assay, values in text and figure): submicromolar
synergy index = (IC50 IFNγ− – IC50 IFNγ+)/IC50 IFNγ+ (MB231 cells): 3.49

Reference: article PMC12203432, “Multicatalysis-Enabled Multicomponent Reactions Generate a PTP1B Inhibitor” (ACS Central Science, 2025)
